Measured values taken from ChEMBL document CHEMBL5291721, “A preclinical secondary pharmacology resource illuminates target-adverse drug reaction associations of marketed drugs” (Nat Commun, 2023).

What was measured:
Progesterone receptor = biological target: T1, Progesterone receptor (Homo sapiens, UniProt P06401)
T1 sequence (P06401 whole entry): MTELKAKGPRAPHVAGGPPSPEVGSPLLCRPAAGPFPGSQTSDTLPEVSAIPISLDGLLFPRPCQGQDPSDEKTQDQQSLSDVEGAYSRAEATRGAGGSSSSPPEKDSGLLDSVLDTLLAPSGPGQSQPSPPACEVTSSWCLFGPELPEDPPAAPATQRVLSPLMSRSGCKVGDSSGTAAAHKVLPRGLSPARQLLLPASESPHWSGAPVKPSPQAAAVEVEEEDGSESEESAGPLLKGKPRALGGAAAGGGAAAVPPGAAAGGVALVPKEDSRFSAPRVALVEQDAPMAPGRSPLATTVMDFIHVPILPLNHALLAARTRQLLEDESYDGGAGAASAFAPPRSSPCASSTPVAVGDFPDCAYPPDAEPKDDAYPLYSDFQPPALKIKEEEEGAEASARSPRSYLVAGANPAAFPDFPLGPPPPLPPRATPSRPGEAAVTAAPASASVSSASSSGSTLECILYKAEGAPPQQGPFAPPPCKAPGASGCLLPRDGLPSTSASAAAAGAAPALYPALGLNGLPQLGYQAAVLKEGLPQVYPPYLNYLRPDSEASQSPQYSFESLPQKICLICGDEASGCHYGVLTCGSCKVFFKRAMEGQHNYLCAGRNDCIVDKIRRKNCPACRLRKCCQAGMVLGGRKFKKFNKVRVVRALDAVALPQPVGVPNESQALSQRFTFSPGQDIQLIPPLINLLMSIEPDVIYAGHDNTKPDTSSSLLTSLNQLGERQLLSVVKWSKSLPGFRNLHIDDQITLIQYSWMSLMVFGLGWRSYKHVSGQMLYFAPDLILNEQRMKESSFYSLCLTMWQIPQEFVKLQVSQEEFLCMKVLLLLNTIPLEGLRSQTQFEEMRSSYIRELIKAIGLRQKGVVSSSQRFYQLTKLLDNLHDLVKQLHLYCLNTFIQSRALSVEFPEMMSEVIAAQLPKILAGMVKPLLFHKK

[1] = biological target: T2, Muscarinic acetylcholine receptor M1 (Homo sapiens, UniProt P11229)
T2 sequence (P11229 whole entry): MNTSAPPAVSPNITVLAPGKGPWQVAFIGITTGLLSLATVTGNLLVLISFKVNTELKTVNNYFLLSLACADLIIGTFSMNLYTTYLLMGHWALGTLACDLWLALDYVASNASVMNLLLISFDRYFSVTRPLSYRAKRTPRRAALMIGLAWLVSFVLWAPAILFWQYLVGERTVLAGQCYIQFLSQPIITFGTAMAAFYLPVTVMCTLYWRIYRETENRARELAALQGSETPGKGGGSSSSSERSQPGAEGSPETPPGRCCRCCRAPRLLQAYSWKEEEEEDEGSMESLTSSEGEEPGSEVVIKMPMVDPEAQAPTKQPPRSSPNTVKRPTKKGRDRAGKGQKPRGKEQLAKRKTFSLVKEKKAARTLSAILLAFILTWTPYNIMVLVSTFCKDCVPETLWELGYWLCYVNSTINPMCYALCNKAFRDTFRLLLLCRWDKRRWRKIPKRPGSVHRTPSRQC

B1 bradykinin receptor = biological target: T3, B1 bradykinin receptor (Homo sapiens, UniProt P46663)
T3 sequence (P46663 whole entry): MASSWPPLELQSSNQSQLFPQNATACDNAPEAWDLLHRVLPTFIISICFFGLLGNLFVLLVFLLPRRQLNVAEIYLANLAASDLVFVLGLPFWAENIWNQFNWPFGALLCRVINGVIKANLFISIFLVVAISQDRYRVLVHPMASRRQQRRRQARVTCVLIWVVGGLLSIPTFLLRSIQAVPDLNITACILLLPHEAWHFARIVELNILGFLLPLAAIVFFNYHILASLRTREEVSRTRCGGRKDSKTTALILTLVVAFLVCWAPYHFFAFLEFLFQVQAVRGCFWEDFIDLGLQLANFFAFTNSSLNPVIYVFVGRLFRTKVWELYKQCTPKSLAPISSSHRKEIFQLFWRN

[2] = biological target: T4, Endothelin receptor type B (Homo sapiens, UniProt P24530)
T4 sequence (P24530 whole entry): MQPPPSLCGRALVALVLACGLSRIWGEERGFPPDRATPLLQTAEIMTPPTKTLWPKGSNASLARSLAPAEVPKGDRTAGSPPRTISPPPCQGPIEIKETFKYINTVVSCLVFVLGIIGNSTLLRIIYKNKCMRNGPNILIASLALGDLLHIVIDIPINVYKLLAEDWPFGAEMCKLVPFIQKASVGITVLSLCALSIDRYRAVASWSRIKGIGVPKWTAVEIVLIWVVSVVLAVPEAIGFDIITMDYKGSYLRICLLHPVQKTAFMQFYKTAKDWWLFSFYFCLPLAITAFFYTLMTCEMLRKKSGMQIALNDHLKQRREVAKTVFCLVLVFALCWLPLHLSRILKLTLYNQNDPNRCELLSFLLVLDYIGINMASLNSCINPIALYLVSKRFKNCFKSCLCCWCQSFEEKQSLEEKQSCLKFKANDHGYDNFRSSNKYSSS

[3] = biological target: Voltage-dependent N-type calcium channel subunit alpha-1B (Rattus norvegicus, UniProt Q02294); type: functional
Glucagon receptor = Glucagon receptor (Homo sapiens, UniProt P47871)
[4] = biological target: Neurotensin receptor type 1 (Homo sapiens, UniProt P30989)
[5] = biological target: T5, Corticotropin-releasing factor receptor 2 (Homo sapiens, UniProt Q13324)
T5 sequence (Q13324 whole entry): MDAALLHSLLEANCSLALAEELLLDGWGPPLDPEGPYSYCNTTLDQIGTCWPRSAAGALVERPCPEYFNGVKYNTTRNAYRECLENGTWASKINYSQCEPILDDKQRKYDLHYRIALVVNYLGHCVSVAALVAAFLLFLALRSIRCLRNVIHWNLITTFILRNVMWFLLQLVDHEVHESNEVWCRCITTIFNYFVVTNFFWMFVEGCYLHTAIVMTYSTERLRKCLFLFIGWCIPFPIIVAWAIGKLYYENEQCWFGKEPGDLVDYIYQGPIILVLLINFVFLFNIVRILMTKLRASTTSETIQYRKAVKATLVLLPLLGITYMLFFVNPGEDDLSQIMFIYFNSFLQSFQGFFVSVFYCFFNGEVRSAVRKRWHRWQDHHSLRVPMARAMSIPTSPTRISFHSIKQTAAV
Note: assay procedure not described here.

Chain of Voltage-dependent N-type calcium channel subunit alpha-1B (Q02294 whole entry): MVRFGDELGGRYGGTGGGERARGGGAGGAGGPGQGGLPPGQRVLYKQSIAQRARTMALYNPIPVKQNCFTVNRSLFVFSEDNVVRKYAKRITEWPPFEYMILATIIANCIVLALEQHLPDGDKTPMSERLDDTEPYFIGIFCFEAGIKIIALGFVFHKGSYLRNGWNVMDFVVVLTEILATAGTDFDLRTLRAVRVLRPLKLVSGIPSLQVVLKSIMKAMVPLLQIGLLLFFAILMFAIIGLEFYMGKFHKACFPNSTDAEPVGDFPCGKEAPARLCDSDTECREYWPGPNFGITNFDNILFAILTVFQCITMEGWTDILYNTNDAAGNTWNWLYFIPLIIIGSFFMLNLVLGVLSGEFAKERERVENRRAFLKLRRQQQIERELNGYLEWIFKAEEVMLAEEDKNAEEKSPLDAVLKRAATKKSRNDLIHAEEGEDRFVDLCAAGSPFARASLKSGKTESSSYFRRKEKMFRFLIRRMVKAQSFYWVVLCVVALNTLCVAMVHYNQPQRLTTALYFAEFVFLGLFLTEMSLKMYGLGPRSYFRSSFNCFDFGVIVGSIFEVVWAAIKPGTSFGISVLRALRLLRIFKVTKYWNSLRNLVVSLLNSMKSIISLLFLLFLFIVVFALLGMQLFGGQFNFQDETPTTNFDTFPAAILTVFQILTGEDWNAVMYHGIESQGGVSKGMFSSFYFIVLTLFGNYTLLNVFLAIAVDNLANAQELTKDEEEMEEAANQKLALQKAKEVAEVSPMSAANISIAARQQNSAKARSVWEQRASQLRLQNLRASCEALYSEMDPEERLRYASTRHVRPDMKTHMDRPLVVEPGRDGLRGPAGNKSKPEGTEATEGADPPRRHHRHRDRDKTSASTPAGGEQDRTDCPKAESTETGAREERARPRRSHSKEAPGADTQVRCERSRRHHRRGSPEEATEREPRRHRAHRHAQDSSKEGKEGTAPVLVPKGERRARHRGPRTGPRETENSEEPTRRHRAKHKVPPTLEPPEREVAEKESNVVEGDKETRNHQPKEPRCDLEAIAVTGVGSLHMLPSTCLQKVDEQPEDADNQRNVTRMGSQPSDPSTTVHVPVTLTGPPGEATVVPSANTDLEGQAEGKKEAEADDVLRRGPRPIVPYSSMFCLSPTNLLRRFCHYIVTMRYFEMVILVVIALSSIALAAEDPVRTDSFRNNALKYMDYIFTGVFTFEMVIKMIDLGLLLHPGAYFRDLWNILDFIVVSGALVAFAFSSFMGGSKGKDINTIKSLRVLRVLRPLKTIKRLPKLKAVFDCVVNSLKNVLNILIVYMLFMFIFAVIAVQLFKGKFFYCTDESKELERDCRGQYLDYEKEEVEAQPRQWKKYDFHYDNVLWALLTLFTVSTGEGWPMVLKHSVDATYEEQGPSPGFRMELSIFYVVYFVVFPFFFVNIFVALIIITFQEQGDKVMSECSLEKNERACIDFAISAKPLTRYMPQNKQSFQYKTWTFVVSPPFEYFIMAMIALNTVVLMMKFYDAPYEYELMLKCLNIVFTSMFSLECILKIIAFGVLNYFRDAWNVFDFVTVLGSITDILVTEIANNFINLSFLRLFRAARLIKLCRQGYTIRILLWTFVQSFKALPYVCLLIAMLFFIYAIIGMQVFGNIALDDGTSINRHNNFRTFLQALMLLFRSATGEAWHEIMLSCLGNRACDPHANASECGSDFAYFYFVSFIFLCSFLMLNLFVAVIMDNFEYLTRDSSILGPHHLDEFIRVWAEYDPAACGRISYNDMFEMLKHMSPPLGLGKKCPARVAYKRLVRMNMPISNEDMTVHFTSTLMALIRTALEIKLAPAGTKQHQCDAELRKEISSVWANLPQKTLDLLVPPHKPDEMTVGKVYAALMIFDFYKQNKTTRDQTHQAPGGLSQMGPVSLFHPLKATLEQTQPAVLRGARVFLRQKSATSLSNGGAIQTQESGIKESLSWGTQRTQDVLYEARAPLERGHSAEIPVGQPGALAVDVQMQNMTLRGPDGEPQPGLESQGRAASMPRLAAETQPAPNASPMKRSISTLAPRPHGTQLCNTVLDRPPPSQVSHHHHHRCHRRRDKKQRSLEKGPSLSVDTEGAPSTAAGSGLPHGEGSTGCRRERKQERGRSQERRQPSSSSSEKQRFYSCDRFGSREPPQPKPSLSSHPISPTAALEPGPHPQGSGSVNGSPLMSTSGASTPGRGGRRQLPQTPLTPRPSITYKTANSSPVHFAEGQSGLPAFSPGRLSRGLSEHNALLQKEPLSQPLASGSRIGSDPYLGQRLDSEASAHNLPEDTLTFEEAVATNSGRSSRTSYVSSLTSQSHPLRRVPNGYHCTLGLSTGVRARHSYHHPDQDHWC
Chain of Glucagon receptor (P47871 whole entry): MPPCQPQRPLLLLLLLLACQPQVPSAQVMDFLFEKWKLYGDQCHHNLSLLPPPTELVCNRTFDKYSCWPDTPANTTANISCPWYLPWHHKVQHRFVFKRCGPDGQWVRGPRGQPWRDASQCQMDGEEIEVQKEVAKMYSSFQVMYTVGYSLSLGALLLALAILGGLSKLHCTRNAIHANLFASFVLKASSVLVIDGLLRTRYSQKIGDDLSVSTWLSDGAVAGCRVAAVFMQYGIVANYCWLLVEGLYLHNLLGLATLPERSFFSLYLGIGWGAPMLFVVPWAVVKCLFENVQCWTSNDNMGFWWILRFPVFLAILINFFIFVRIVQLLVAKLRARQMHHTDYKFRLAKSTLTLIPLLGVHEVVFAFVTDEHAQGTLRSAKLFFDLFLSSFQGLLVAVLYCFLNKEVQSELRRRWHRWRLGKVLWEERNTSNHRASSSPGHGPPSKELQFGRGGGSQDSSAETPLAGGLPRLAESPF
Chain of Neurotensin receptor type 1 (P30989 whole entry): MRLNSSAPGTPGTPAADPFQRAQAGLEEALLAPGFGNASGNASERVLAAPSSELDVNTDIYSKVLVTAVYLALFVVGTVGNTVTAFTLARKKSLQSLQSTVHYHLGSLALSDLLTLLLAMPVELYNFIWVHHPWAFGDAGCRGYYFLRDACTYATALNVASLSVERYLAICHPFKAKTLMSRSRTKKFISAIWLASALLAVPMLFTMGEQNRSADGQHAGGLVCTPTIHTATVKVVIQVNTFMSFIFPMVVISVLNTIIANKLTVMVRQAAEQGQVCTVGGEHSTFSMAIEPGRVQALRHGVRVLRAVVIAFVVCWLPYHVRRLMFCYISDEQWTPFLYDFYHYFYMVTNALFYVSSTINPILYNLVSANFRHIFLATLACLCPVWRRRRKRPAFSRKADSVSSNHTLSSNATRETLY

Row | SMILES | AC50 (Progesterone receptor) [µM] | AC50 [1] [µM] | AC50 (B1 bradykinin receptor) [µM] | AC50 [2] [µM] | AC50 [3] [µM] | AC50 (Glucagon receptor) [µM] | AC50 [4] [µM] | AC50 [5] [µM]
1 | O=C(O)c1cccc(-c2noc(-c3ccccc3F)n2)c1 | > 30 |  |  |  |  |  |  | 
2 | CO/N=C(\C(=O)N[C@@H]1C(=O)N2C(C(=O)OCOC(=O)C(C)(C)C)=C(C)CS[C@H]12)c1csc(N)n1 |  | > 30 |  |  |  |  |  | 
3 | O=C(Cn1ccnc1[N+](=O)[O-])NCc1ccccc1 [BENZNIDAZOLE] |  | > 30 |  |  |  |  |  | 
4 | COCC1=C(C(=O)OC(C)OC(=O)OC(C)C)N2C(=O)[C@@H](NC(=O)/C(=N\OC)c3csc(N)n3)[C@H]2SC1 (some centres not stated) [CEFPODOXIME PROXETIL] |  | > 30 |  |  |  |  |  | 
5 | CC(C)(N)Cc1ccc(Cl)cc1 [CHLORPHENTERMINE] | > 30 |  | > 30 | > 30 | > 10 | > 30 | > 30 | > 30
6 | NS(=O)(=O)c1cc2c(cc1Cl)NC(CC1CCCC1)NS2(=O)=O (configuration not stated) [CYCLOPENTHIAZIDE] |  | > 30 |  |  |  |  |  | 
7 | Nc1nc(-n2cc(C(=O)O)c(=O)c3cc(F)c(N4CC(O)C4)c(Cl)c32)c(F)cc1F [DELAFLOXACIN] |  | > 30 |  |  |  |  |  | 
8 | O=C(Nc1ccccc1)OCC(CN1CCCCC1)OC(=O)Nc1ccccc1 (configuration not stated) [DIPERODON] | > 30 |  | > 30 | > 30 | > 10 | > 30 | > 30 | > 30
9 | N/N=c1/cc2c(n[nH]1)CCN(C(=O)c1ccccc1)C2 [ENDRALAZINE] |  | > 30 |  |  |  |  |  | 
10 | C=C1C[C@@H]2[C@H](CC[C@]3(C)C(=O)CC[C@@H]23)[C@@]2(C)C=CC(=O)C=C12 [EXEMESTANE] | 29.3 |  | > 30 | > 30 | > 10 | > 30 | > 30 | > 30
11 | CC(C)=CCC1C(=O)N(c2ccccc2)N(c2ccccc2)C1=O [FEPRAZONE] |  | > 30 |  |  |  |  |  | 
12 | CC(=O)N(CC(O)CO)c1c(I)c(C(=O)NCC(O)CO)c(I)c(C(=O)NCC(O)CO)c1I (configuration not stated) [IOHEXOL] | > 30 |  |  |  |  |  |  | 
13 | CN1C(=O)N(C)C2C1N(C)C(=O)N2C (configuration not stated) [MEBICAR] |  | > 30 |  |  |  |  |  | 
14 | NC(=O)c1cccc2cn(-c3ccc([C@@H]4CCCNC4)cc3)nc12 [NIRAPARIB] |  | 15.3 |  |  |  |  |  | 
15 | Nc1ccc(/N=N/c2ccccc2)c(N)n1 [PHENAZOPYRIDINE] |  | > 30 |  |  |  |  |  | 
16 | CN(C)CCCN1c2ccccc2Sc2ccccc21 [PROMAZINE] | > 30 |  | > 30 | > 30 | > 10 | > 30 | > 30 | > 30
17 | O=C(O)CCn1c2c(c3ccccc31)C[C@H](NS(=O)(=O)c1ccc(F)cc1)CC2 [RAMATROBAN] |  |  | > 10 | > 10 |  | > 10 |  | 
18 | O=P(O)(O)C(O)(Cc1cccnc1)P(=O)(O)O [RISEDRONIC ACID] | > 30 |  | > 30 | > 30 | > 10 | > 30 | > 30 | > 30
19 | O=C1CCC(N2C(=O)c3ccccc3C2=O)C(=O)N1 (configuration not stated) [THALIDOMIDE] | > 30 |  | > 30 | > 30 | > 10 | > 30 | > 30 | > 30
